Measured values taken from ChEMBL document CHEMBL1201862, “PubChem BioAssay data set” (2004).
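Method: 48-hour compound exposure of cells in 96-well plates, five concentrations, linear interpolation of endpoints. GI50 is the concentration that inhibits growth by half.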 Activity calls are given as the source filed them. No stated cut-off is given here; in the data, active = GI50 up to about 1.1 µM and inactive = higher.

Tests used:
Experiment in all cases: NCI anticancer screen, dose series, 48 h
BT-549 = test system: BT-549
CAKI-1 = test system: CAKI-1
DU-145 = test system: DU-145
EKVX = test system: EKVX
HCC 2998 = test system: HCC 2998
HT-29 = test system: HT-29
Hs-578T = test system: Hs-578T
K562 = test system: K562
MCF7 = test system: MCF7
MDA-MB-231 = test system: MDA-MB-231
MDA-MB-435 = test system: MDA-MB-435
MDA-N = test system: MDA-N
NCI/ADR-RES = test system: NCI/ADR-RES
PC-3 = test system: PC-3
SF-295 = test system: SF-295
SR = test system: SR
TK-10 = test system: TK-10
U-251 = test system: U-251
UACC-257 = test system: UACC-257
786-0 = test system: 786-0
A498 = test system: A498
A549 = test system: A549
ACHN = test system: ACHN
CCRF-CEM = test system: CCRF-CEM
COLO 205 = test system: COLO 205
HCT-116 = test system: HCT-116
HCT-15 = test system: HCT-15
HL-60 = test system: HL-60
HOP-62 = test system: HOP-62
HOP-92 = test system: HOP-92
IGROV-1 = test system: IGROV-1
KM12 = test system: KM12
LOX IMVI = test system: LOX IMVI
MOLT-4 = test system: MOLT-4
Malme-3M = test system: Malme-3M
NCI-H226 = test system: NCI-H226
NCI-H23 = test system: NCI-H23
NCI-H460 = test system: NCI-H460
NCI-H522 = test system: NCI-H522
OVCAR-3 = test system: OVCAR-3
OVCAR-4 = test system: OVCAR-4
OVCAR-8 = test system: OVCAR-8
RPMI-8226 = test system: RPMI-8226
RXF 393 = test system: RXF 393
SF-268 = test system: SF-268
SF-539 = test system: SF-539
SK-MEL-28 = test system: SK-MEL-28
SK-MEL-5 = test system: SK-MEL-5
SN12C = test system: SN12C
SNB-19 = test system: SNB-19
SNB-75 = test system: SNB-75
SW-620 = test system: SW-620
T47D = test system: T47D
UACC-62 = test system: UACC-62
UO-31 = test system: UO-31
M14 = test system: M14
OVCAR-5 = test system: OVCAR-5
SK-MEL-2 = test system: SK-MEL-2
SK-OV-3 = test system: SK-OV-3

For `N=C(N)SCCc1ccccn1`, the GI50 (BT-549) was > 100 µM (inactive), the GI50 (CAKI-1) was > 100 µM (inactive) and the GI50 (DU-145) was > 100 µM (inactive). The GI50 (EKVX) was 89.3 µM (inactive), the GI50 (HCC 2998) was > 100 µM (inactive) and the GI50 (HT-29) was > 100 µM (inactive). The GI50 (Hs-578T) was > 100 µM (inactive), the GI50 (K562) was > 100 µM (inactive) and the GI50 (MCF7) was > 100 µM (inactive). For the same compound, the GI50 (MDA-MB-231) was 55.2 µM (inactive), the GI50 (MDA-MB-435) was > 100 µM (inactive) and the GI50 (MDA-N) was > 100 µM (inactive). For the same compound, the GI50 (NCI/ADR-RES) was > 100 µM (inactive), the GI50 (PC-3) was > 100 µM (inactive) and the GI50 (SF-295) was > 100 µM (inactive). For the same compound, the GI50 (SR) was > 100 µM (inactive), the GI50 (TK-10) was > 100 µM (inactive) and the GI50 (U-251) was 51.2 µM (inactive). For the same compound, the GI50 (UACC-257) was > 100 µM (inactive).

With `C/C(Nc1ccc(Cl)cc1Cl)=C1/CCOC1=O` the GI50 (786-0) was 40.4 µM (inactive), the GI50 (A498) was 59.8 µM (inactive) and the GI50 (A549) was 78.7 µM (inactive). For the same compound, the GI50 (ACHN) was 92.9 µM (inactive), the GI50 (BT-549) was 24.1 µM (inactive) and the GI50 (CCRF-CEM) was 25.3 µM (inactive). The GI50 (COLO 205) was > 100 µM (inactive), the GI50 (DU-145) was > 100 µM (inactive) and the GI50 (EKVX) was 10.4 µM (inactive). The GI50 (HCC 2998) was > 100 µM (inactive), the GI50 (HCT-116) was > 100 µM (inactive) and the GI50 (HCT-15) was > 100 µM. For the same compound, the GI50 (HL-60) was 56.5 µM (inactive), the GI50 (HOP-62) was 27 µM (inactive) and the GI50 (HOP-92) was 22.8 µM (inactive). For the same compound, the GI50 (HT-29) was > 100 µM (inactive), the GI50 (Hs-578T) was 33.6 µM (inactive) and the GI50 (IGROV-1) was > 100 µM (inactive). For the same compound, the GI50 (K562) was > 100 µM (inactive), the GI50 (KM12) was > 100 µM (inactive) and the GI50 (LOX IMVI) was > 100 µM (inactive). For the same compound, the GI50 (MCF7) was > 100 µM (inactive), the GI50 (MDA-MB-231) was 19.9 µM (inactive) and the GI50 (MDA-MB-435) was > 100 µM (inactive). For the same compound, the GI50 (MOLT-4) was 87.3 µM (inactive), the GI50 (Malme-3M) was > 100 µM (inactive) and the GI50 (NCI-H226) was > 100 µM (inactive). For the same compound, the GI50 (NCI-H23) was 59.3 µM (inactive), the GI50 (NCI-H460) was 89.5 µM (inactive) and the GI50 (NCI-H522) was 86.5 µM (inactive). For the same compound, the GI50 (NCI/ADR-RES) was 77.6 µM (inactive), the GI50 (OVCAR-3) was > 100 µM (inactive) and the GI50 (OVCAR-4) was > 100 µM (inactive). For the same compound, the GI50 (OVCAR-8) was 48.3 µM (inactive), the GI50 (PC-3) was > 100 µM (inactive) and the GI50 (RPMI-8226) was > 100 µM (inactive). For the same compound, the GI50 (RXF 393) was 13.5 µM (inactive), the GI50 (SF-268) was 30.8 µM (inactive) and the GI50 (SF-295) was 26.6 µM (inactive). The GI50 (SF-539) was 25.7 µM (inactive), the GI50 (SK-MEL-28) was > 100 µM (inactive) and the GI50 (SK-MEL-5) was > 100 µM (inactive). The GI50 (SN12C) was 41.5 µM (inactive), the GI50 (SNB-19) was 26.2 µM (inactive) and the GI50 (SNB-75) was 36.9 µM (inactive). For the same compound, the GI50 (SR) was > 100 µM (inactive), the GI50 (SW-620) was > 100 µM (inactive) and the GI50 (T47D) was 46.5 µM (inactive). The GI50 (TK-10) was 56.4 µM (inactive), the GI50 (U-251) was 27.2 µM (inactive) and the GI50 (UACC-257) was > 100 µM (inactive). The GI50 (UACC-62) was 63.7 µM (inactive) and the GI50 (UO-31) was 40.8 µM (inactive).

`OCCCC(O)(c1ccccc1)c1ccccc1` was tested, and the GI50 (786-0) was > 100 µM (inactive), the GI50 (A549) was > 100 µM (inactive) and the GI50 (ACHN) was > 100 µM (inactive). For the same compound, the GI50 (BT-549) was > 100 µM (inactive), the GI50 (CCRF-CEM) was > 100 µM (inactive) and the GI50 (EKVX) was > 100 µM (inactive). The GI50 (HCC 2998) was > 100 µM (inactive), the GI50 (HCT-15) was > 100 µM and the GI50 (HL-60) was > 100 µM (inactive). The GI50 (HOP-62) was > 100 µM (inactive), the GI50 (HT-29) was > 100 µM (inactive) and the GI50 (Hs-578T) was > 100 µM (inactive). For the same compound, the GI50 (IGROV-1) was > 100 µM (inactive), the GI50 (K562) was > 100 µM (inactive) and the GI50 (KM12) was > 100 µM (inactive). For the same compound, the GI50 (LOX IMVI) was > 100 µM (inactive), the GI50 (M14) was > 100 µM (inactive) and the GI50 (MCF7) was > 100 µM (inactive). The GI50 (MDA-MB-435) was > 100 µM (inactive), the GI50 (MOLT-4) was > 100 µM (inactive) and the GI50 (Malme-3M) was > 100 µM (inactive). For the same compound, the GI50 (NCI-H226) was > 100 µM (inactive), the GI50 (NCI-H23) was > 100 µM (inactive) and the GI50 (NCI-H460) was > 100 µM (inactive). For the same compound, the GI50 (NCI-H522) was > 100 µM (inactive), the GI50 (NCI/ADR-RES) was > 100 µM (inactive) and the GI50 (OVCAR-3) was > 100 µM (inactive). The GI50 (OVCAR-4) was > 100 µM (inactive), the GI50 (OVCAR-5) was > 100 µM (inactive) and the GI50 (OVCAR-8) was > 100 µM (inactive). The GI50 (PC-3) was > 100 µM (inactive), the GI50 (RPMI-8226) was > 100 µM (inactive) and the GI50 (RXF 393) was > 100 µM (inactive). The GI50 (SF-268) was > 100 µM (inactive), the GI50 (SF-295) was > 100 µM (inactive) and the GI50 (SF-539) was > 100 µM (inactive). The GI50 (SK-MEL-28) was > 100 µM (inactive), the GI50 (SK-MEL-2) was > 100 µM (inactive) and the GI50 (SK-MEL-5) was > 100 µM (inactive). The GI50 (SK-OV-3) was > 100 µM (inactive), the GI50 (SN12C) was > 100 µM (inactive) and the GI50 (SNB-19) was > 100 µM (inactive). For the same compound, the GI50 (SNB-75) was > 100 µM (inactive), the GI50 (SR) was > 100 µM (inactive) and the GI50 (SW-620) was > 100 µM (inactive). For the same compound, the GI50 (TK-10) was > 100 µM (inactive), the GI50 (U-251) was > 100 µM (inactive) and the GI50 (UACC-257) was > 100 µM (inactive). For the same compound, the GI50 (UACC-62) was > 100 µM (inactive) and the GI50 (UO-31) was > 100 µM (inactive).
